Usually inhibition stands for the drop in the measured response relative to a control, in per cent.

Experimental findings from ChEMBL document CHEMBL3797139, “Synthesis and biological evaluation of 1,2-dithiol-3-thiones and pyrrolo[1,2-a]pyrazines as novel hypoxia inducible factor-1 (HIF-1) inhibitor” (Bioorg Med Chem, 2016) are described below.

In data set [1] the test system is HCT-116. Kind of data set: Reduction of insulin-induced HIF-1 alpha expression in human HCT116 cells at 10 uM by western blot analysis. The data set is classed as functional. The settings on record: for inhibition at 10 µM: Homo sapiens, HCT-116. In general terms: In western blotting, separated proteins are transferred to a membrane and probed.
Data set [2] is described as follows: Cytotoxicity against human HCT116 cells at 10 uM. Type of data set: cell-based. The settings on record: hct-116, 10 µM.
Data set [3] has as its system HCT-116. Kind of data set: Reduction of insulin-induced HIF-1 alpha target gene expression in human HCT116 cells assessed as decrease in Glut-1 expression at 10 uM by RT-PCR analysis. Type of data set: functional. The settings on record: for inhibition at 10 µM: Homo sapiens, HCT-116.
The subject of data set [4] is HCT-116. Kind of data set: Reduction of insulin-induced HIF-1 alpha expression in human HCT116 cells at 30 uM by western blot analysis. Type of data set: functional.
Data set [5] in a line: Cytotoxicity against human HCT116 cells at 30 uM. The data set is classed as cell-based. The settings on record: hct-116, 30 µM.
The test system of data set [6] is HCT-116. Kind of data set: Reduction of insulin-induced HIF-1 alpha target gene expression in human HCT116 cells assessed as decrease in VEGF expression at 10 uM by RT-PCR analysis. Type of data set: functional.
In data set [7] the test system is HCT-116. Kind of data set: Reduction of insulin-induced HIF-1 alpha target gene expression in human HCT116 cells assessed as decrease in VEGF expression at 30 uM by RT-PCR analysis. Type of data set: functional.
Data set [8] deals with HCT-116. Kind of data set: Reduction of insulin-induced HIF-1 alpha target gene expression in human HCT116 cells assessed as decrease in Glut-1 expression at 30 uM by RT-PCR analysis. Type of data set: functional.
Data set [9] has as its system HCT-116. Kind of data set: Reduction of insulin-induced HIF-1 alpha expression in human HCT116 cells at 3 uM by western blot analysis. Type of data set: functional, cell-based.
A short description of data set [10]: Cytotoxicity against human HCT116 cells at 3 uM. The data set is classed as cell-based. The settings on record: hct-116, 3 µM.

Calls of active or inactive are those of the source. The calls are words filed in the database; no cut-off is given here.

Consider `CSc1c(C)c(SC)n2ccncc12.Cl`, for which the “inhibition (INH)” value is on record as 37% with HCT-116 [1] and 14% in the data set on HCT-116 [3]. The Activity result in [2] was “Non-toxic”.

Take `S=c1ssc(-c2cnccn2)c1CCc1ccccc1`: the inhibition at 30 µM with HCT-116 [4] amounted to 65%. Further, the Activity result in [5] is given as “Non-toxic”.

Regarding `CCCCc1c(-c2cnccn2)ssc1=S`, the inhibition at 30 µM with HCT-116 [4] turned out to be 80%. Besides, the Activity entry in [5] is “Non-toxic”.

With `CCCc1c(SC)c2cnccn2c1SC.Cl`, the inhibition at 10 µM in the data set with HCT-116 [1] is 90%. The Activity entry in data set [2] is “Non-toxic”. For the same compound, the inhibition entry in the data set on HCT-116 [6] and in the data set with HCT-116 [3] was “Active” in each case.

In the case of `CCCCc1c(SC)c2cnccn2c1SC.Cl`, the Activity entry in data set [2] was “Non-toxic”.

Turning to `Cc1c(-c2cnccn2)ssc1=S` [OLTIPRAZ], the inhibition at 30 µM with HCT-116 [4] was 48%; in the data set with HCT-116 [7], 36%; in the data set with HCT-116 [8], 59%. Also, the Activity entry in data set [5] is “Non-toxic”.

`CCc1c(-c2cnccn2)ssc1=S`: the Activity entry in data set [5] is given as “Non-toxic”.

For `CSc1c(C)c(SC)n2ccncc12` [listing 1 of 2 here], the inhibition at 10 µM in the data set with HCT-116 [1] turned out to be 37%; with HCT-116 [3] it was 14%.

For the compound `COc1ccc(Cc2c(-c3cnccn3)ssc2=S)cc1`, in data set [5], the Activity entry is listed as “Non-toxic”.

On to `CCCc1c(-c2cnccn2)ssc1=S`, for which the inhibition at 30 µM in the data set on HCT-116 [4] is 76%; in the data set with HCT-116 [7], 70%; in the data set on HCT-116 [8] it was 86%. For the same compound, in data set [5], the Activity result is “Non-toxic”.

In the data set on HCT-116 [4], `S=c1ssc(-c2cnccn2)c1Cc1ccccc1` returned an inhibition at 30 µM of 41%. The Activity entry in [5] is listed as “Non-toxic”.

In the data set with HCT-116 [4], `S=c1ssc(-c2cnccn2)c1-c1ccccc1` returned an inhibition at 30 µM of 8%. Besides, the Activity entry in data set [5] was “Non-toxic”. The inhibition result in the data set on HCT-116 [7] and in the data set on HCT-116 [8] was “Active” each time.

For `COc1ccc(Cc2c(SC)c3cnccn3c2SC)cc1.Cl`, in [2], the Activity result was “Toxic”.

For `CSc1c(SC)c2cnccn2c1SC.Cl`, testing at 10 µM in the data set on HCT-116 [1] gave an inhibition of 6%. The Activity entry in [2] is on record as “Non-toxic”.

Turning to `OCc1ccc(-c2nn(Cc3ccccc3)c3ccccc23)o1`, in the data set with HCT-116 [9], the inhibition entry was “Active”. In addition, in data set [10], the Activity result is “Non-toxic”.

For the compound `Cc1ccc(Cc2c(-c3cnccn3)ssc2=S)cc1`, the Activity entry in data set [5] is “Non-toxic”.

In the case of `CC[C@@]1(O)C(=O)OCc2c1cc1n(c2=O)Cc2cc3c(CN(C)C)c(O)ccc3nc2-1` [TOPOTECAN], in the data set with HCT-116 [9], the inhibition result was “Active”. For the same compound, the Activity result in data set [10] is on record as “Non-toxic”.

In the case of `S=c1cc(-c2cnccn2)ss1`, in data set [5], the Activity entry is listed as “Toxic”.

Consider `CCc1c(SC)c2cnccn2c1SC.Cl`, for which, in the data set with HCT-116 [1], the inhibition at 10 µM came out at 86%. Further, the Activity result in [2] was “Non-toxic”.

Consider `S=c1ssc(-c2cnccn2)c1Cc1ccc(Cl)cc1`, for which the Activity entry in data set [5] is recorded as “Non-toxic”.

Turning to `CSc1c(-c2ccccc2)c(SC)n2ccncc12.Cl`, testing at 10 µM in the data set with HCT-116 [1] gave an inhibition of 3%. In addition, the Activity result in data set [2] is on record as “Non-toxic”. Besides, the inhibition result in the data set on HCT-116 [6] and with HCT-116 [3] was “Active” each time.

As for `CSc1c(Cc2ccccc2)c(SC)n2ccncc12.Cl`, the inhibition at 10 µM in the data set on HCT-116 [1] amounted to 81%; in the data set with HCT-116 [6] it was 77%; in the data set on HCT-116 [3], 92%. The Activity result in data set [2] was “Non-toxic”.

Consider `CSc1c(Cc2ccc(C)cc2)c(SC)n2ccncc12.Cl`, for which the Activity result in data set [2] is listed as “Toxic”.

In the case of `CSc1c(Cc2ccc(Cl)cc2)c(SC)n2ccncc12.Cl`, in data set [2], the Activity entry is “Toxic”.

With `CSc1c(C)c(SC)n2ccncc12` [listing 2 of 2 here], the inhibition entry in the data set on HCT-116 [6] is “inactive”.

Consider `CSc1cc(SC)n2ccncc12.Cl`, for which the Activity entry in data set [2] is listed as “Non-toxic”.

In turn, `CSc1c(CCc2ccccc2)c(SC)n2ccncc12.Cl` returned an inhibition at 10 µM in the data set on HCT-116 [1] of 87%. Moreover, in [2], the Activity entry was “Toxic”.
